The target in assay [1] is T1, 5-hydroxytryptamine receptor 2B (Homo sapiens, UniProt P41595). As to the kind of experiment: Displacement of [3H]mesulergine from human 5-HT2B receptor expressed in HEK293 cells. In kind it is cell-based. On the technique in general: In a radioligand displacement assay an active substance lowers the binding of a labelled ligand.
Assay [2] has as its target 5-hydroxytryptamine receptor 7 (Homo sapiens, UniProt P34969). The assay can be described thus: Displacement of [3H]5-HT from human 5-HT7 receptor expressed in CHO cells. In kind it is cell-based.
Assay [3] has as its system Mus musculus. As to the kind of experiment: Reversal of 5-CT-induced hypothermic effect in po dosed mouse assessed as minimum effective dose. It is filed as functional. As to conditions: for minimal effective dose: read-out: MED.
Assay [4] concerns Cavia porcellus. The assay can be described thus: Suppression of 5-HT-induced dural protein extravasation in Hartley guinea pig at 10 mg/kg, po. In kind it is functional, organism-based. Set-up: dose 10 mg/kg.
Assay [5] relates to Cavia porcellus. As to the kind of experiment: Suppression of 5-HT-induced dural protein extravasation in po dosed Hartley guinea pig. In kind it is functional, organism-based.
For assay [6], the target named is T1, 5-hydroxytryptamine receptor 2B. As to the kind of experiment: Antagonist activity at human 5-HT2B receptor expressed in HEK293 cells assessed as [3H]PI metabolism. In kind it is cell-based.
For assay [7], the target named is T2, Muscarinic acetylcholine receptor M5 (Homo sapiens, UniProt P08912).
T2 sequence (P08912 whole entry): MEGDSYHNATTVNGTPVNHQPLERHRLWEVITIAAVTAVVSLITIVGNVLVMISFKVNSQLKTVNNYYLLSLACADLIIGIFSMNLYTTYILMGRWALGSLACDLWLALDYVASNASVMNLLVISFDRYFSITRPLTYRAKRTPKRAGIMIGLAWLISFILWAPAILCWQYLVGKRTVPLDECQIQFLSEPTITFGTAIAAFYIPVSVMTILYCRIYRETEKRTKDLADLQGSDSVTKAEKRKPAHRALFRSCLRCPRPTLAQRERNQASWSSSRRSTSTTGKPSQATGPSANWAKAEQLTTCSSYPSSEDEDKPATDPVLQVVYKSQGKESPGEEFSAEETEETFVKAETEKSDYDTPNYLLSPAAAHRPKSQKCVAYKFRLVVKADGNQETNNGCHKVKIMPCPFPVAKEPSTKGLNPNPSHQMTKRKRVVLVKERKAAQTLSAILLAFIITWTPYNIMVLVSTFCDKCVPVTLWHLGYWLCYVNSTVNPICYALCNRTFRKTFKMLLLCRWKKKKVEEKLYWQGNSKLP
The assay can be described thus: Binding affinity to muscarinic M5 receptor (unknown origin).

In assay [8] the target is T3, 5-hydroxytryptamine receptor 2C (Homo sapiens, UniProt P28335).
T3 sequence (P28335 whole entry): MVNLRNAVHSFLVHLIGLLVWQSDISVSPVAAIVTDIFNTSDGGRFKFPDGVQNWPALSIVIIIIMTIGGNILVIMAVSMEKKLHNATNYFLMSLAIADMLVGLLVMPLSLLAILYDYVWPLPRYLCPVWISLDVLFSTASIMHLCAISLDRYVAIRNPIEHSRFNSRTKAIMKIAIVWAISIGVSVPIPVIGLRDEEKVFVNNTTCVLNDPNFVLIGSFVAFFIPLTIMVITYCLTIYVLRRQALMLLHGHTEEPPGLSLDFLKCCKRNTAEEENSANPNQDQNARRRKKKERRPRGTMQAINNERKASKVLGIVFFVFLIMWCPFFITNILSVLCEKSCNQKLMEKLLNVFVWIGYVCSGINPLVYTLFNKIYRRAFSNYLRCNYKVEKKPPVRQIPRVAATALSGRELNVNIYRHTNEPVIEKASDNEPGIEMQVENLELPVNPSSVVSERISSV
As to the kind of experiment: Binding affinity to serotonin 5-HT2C receptor (unknown origin).

Assay [9] deals with D(2) dopamine receptor (Homo sapiens, UniProt P14416). As to the kind of experiment: Binding affinity to dopamine D2 receptor (unknown origin).
Chain of D(2) dopamine receptor (P14416 whole entry): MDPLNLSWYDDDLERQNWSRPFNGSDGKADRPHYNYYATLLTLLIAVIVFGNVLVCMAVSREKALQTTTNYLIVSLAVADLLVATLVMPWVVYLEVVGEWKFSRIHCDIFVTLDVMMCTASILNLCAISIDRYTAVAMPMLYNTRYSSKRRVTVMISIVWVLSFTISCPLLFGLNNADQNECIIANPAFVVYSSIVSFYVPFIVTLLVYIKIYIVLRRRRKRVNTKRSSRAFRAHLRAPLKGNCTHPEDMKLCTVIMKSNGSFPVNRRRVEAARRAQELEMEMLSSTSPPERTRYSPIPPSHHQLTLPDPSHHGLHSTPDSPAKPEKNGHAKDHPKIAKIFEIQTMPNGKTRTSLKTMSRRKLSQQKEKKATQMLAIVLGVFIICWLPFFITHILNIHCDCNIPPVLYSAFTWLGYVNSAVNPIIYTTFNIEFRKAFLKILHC
For assay [10], the target named is 5-hydroxytryptamine receptor 2A (Homo sapiens, UniProt P28223). The assay can be described thus: Binding affinity to serotonin 5-HT2A receptor (unknown origin).
Chain of 5-hydroxytryptamine receptor 2A (P28223 whole entry): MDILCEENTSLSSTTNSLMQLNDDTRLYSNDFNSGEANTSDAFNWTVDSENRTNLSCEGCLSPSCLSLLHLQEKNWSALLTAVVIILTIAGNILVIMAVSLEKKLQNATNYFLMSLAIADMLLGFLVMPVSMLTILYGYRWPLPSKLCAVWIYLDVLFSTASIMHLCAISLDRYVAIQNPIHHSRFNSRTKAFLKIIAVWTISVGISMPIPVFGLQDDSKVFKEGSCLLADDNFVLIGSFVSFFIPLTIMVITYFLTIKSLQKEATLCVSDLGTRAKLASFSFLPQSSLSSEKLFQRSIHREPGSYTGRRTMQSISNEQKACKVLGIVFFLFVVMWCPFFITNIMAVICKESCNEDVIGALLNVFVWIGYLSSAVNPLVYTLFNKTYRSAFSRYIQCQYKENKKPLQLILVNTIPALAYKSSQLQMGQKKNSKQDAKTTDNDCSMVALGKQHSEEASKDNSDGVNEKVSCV
Assay [11] has as its target T4, Adrenergic receptor alpha-1 (Homo sapiens, UniProt P35348+P25100+P35368).
T4 sequence (P35348 whole entry): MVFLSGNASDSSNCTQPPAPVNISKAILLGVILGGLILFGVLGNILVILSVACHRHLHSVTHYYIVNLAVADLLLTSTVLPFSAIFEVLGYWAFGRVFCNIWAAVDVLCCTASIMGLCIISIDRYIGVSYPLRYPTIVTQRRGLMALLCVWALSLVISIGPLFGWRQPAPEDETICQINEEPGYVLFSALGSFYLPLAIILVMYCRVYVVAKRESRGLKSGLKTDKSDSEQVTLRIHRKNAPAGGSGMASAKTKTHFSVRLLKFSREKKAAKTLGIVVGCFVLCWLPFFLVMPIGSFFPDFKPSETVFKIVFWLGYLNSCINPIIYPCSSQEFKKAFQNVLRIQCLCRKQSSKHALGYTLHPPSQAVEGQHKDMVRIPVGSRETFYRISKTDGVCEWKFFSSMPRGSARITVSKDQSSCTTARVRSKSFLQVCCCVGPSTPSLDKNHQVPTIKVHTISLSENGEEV
T4 sequence (P25100 whole entry): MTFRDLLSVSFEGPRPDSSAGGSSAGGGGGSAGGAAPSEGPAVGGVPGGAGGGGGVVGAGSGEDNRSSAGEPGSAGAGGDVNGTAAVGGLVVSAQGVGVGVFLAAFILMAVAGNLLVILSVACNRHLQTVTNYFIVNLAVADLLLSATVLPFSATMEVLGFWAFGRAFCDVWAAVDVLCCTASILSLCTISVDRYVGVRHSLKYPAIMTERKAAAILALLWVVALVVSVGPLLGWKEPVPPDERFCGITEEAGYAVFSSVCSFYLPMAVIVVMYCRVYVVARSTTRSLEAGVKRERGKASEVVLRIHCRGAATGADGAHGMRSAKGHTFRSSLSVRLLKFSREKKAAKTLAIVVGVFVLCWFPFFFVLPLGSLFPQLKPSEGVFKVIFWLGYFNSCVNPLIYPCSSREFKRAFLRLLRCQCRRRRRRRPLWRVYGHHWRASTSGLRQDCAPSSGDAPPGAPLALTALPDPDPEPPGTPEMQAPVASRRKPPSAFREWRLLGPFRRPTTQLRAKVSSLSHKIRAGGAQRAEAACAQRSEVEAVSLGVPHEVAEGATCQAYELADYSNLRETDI
T4 sequence (P35368 whole entry): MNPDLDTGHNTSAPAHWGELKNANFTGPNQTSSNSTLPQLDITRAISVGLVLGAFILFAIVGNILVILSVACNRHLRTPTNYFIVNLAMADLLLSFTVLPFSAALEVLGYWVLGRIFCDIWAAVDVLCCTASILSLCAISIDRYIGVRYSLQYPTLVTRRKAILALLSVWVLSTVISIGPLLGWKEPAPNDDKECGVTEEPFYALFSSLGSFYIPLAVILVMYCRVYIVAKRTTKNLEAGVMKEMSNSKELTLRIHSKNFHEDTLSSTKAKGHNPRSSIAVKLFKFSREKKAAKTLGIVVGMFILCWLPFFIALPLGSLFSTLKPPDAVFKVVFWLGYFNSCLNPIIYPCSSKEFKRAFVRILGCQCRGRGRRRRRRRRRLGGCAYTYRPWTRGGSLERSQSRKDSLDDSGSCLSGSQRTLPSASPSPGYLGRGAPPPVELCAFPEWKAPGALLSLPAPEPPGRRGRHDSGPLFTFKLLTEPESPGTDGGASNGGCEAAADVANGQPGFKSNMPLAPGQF
As to the kind of experiment: Binding affinity to alpha1-adrenergic receptor (unknown origin).

Structures are written as SMILES. Activity calls are given as the source filed them. The calls are words filed in the database; no cut-off is given here.

In general, Ki refers to a measure of affinity in units of concentration, obtained from inhibition or displacement. Read a low Ki as tighter binding. What is called IC50 is the concentration that gives 50% inhibition.

T1 sequence (P41595 whole entry): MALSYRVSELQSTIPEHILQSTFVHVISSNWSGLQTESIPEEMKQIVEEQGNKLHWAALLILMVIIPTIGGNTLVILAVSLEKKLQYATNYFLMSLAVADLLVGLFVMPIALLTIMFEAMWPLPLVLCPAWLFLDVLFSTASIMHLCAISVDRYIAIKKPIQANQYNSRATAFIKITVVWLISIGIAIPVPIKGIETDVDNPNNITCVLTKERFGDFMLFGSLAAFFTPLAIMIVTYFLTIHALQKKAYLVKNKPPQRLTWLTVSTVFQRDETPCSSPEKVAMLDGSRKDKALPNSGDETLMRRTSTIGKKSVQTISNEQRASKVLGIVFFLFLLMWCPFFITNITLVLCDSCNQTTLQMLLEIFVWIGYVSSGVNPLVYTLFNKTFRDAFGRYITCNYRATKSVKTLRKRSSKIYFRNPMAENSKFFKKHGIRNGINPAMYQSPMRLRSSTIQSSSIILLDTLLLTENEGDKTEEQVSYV
Chain of 5-hydroxytryptamine receptor 7 (P34969 whole entry): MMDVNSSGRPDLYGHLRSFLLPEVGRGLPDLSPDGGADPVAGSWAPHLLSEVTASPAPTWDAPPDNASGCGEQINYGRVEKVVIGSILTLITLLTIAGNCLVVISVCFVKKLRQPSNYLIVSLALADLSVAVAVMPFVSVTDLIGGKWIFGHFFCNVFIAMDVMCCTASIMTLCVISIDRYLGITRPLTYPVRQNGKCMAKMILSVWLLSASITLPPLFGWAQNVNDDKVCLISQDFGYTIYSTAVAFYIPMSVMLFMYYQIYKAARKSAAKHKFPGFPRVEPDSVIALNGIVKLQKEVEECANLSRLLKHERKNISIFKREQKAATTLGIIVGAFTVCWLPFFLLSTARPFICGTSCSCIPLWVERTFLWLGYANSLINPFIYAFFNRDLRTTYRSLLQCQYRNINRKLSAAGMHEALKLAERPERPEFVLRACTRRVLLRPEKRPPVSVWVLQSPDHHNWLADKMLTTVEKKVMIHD

On to `NC(N)=NC(=O)c1ccc2c(c1)C1(CCOCC1)c1ccccc1-2`, for which the Ki in assay [1] was 9.1 nM; in assay [2], 1.3 nM.

Take `Cl.NC(N)=NC(=O)c1ccc2c(c1)C1(CCCC1)c1ccccc1-2`: the inhibition constant (Ki) in assay [1] was 1.7 nM; in [2], 1.8 nM. Also, the minimal effective dose in assay [3] was at most 100 mg/kg.

Consider `NC(N)=NC(=O)c1ccc2c(c1)[C@@]1(CCCO1)c1ccccc1-2`, for which, in assay [1], the inhibitory constant (Ki) came to 5.1 nM. Further, in assay [4], the inhibition entry is “Active”. The inhibition result in assay [5] was “Dose-dependent effect”. For the same compound, in [6], the IC50 was 73 nM.

Take `Cl.NC(N)=NC(=O)c1ccc2c(c1)C1(CCCO1)c1ccccc1-2` (stereo not drawn): the Ki is over 1000 nM in [7]; 152 nM in [8]; 5.1 nM in [1]; over 1000 nM in assay [9]; over 1000 nM in assay [10]; over 1000 nM in assay [11]. The minimal effective dose in assay [3] is 3 mg/kg. In addition, the IC50 in assay [6] turned out to be 55 nM.

For the compound `COC1(C)c2ccccc2-c2ccc(C(=O)N=C(N)N)cc21.Cl` (stereo not drawn), the Ki was determined as 3.3 nM in assay [1] and 1.4 nM in assay [2]. Moreover, the minimal effective dose in assay [3] was determined as 30 mg/kg.

For the compound `CCC1(OC)c2ccccc2-c2ccc(C(=O)N=C(N)N)cc21.Cl` (stereo not drawn), the Ki was 4.8 nM in assay [1] and 0.6 nM in assay [2]. The minimal effective dose in assay [3] came out at 10 mg/kg.

As to `COCC1(OC)c2ccccc2-c2ccc(C(=O)N=C(N)N)cc21.Cl` (stereo not drawn), the results for the Ki in [1] and in assay [2] were 2 nM and 0.76 nM, respectively. The minimal effective dose in assay [3] is over 30 mg/kg.

Turning to `CCC1(O)c2ccccc2-c2ccc(C(=O)N=C(N)N)cc21` (stereo not drawn), the inhibition constant (Ki) in assay [1] is 41 nM; in assay [2] it was 1.2 nM.

Consider `CC1(O)c2ccccc2-c2ccc(C(=O)N=C(N)N)cc21.Cl` (stereo not drawn), for which the minimal effective dose in [3] came to 30 mg/kg.

On to `NC(N)=NC(=O)c1ccc2c(c1)C1(CC1)c1ccccc1-2`, for which the Ki amounted to 0.51 nM in [1] and 4.9 nM in [2]. Further, the MED result in assay [3] is “inactive”.

The compound `NC(N)=NC(=O)c1ccc2c(c1)[C@]1(CCCO1)c1ccccc1-2` yielded a Ki in [1] of 2.7 nM. For the same compound, in assay [4], the inhibition entry is “Active”. For the same compound, the inhibition result in assay [5] was “Dose-dependent effect”. Also, the half-inhibitory concentration (IC50) in assay [6] was 35 nM.

Consider `CCCCC1(O)c2ccccc2-c2ccc(C(=O)N=C(N)N)cc21` (stereo not drawn), for which the inhibition constant Ki was 31 nM in assay [1] and over 100 nM in assay [2].

The record behind these values is ChEMBL document CHEMBL3351957, “Synthesis and pharmacological evaluation of optically pure, novel carbonyl guanidine derivatives as dual 5-HT2B and 5-HT7 receptor antagonists” (Bioorg Med Chem, 2014).
